# Test results taken from PubChem BioAssay AID284 (DTP/NCI, 2004).
# Values joined by “and” are separate entries in the source; they are usually repeats but may differ in a detail not shown here. Equal entries are not always repeated. Toxic doses and inconclusive results are not listed.
# Test system: BDF1 mice, L1210/MTX-resistant leukemia ip, survival T/C
# Assay: NCI In Vivo Anticancer Drug Screen. Data for tumor model L1210 Leukemia resistant to Methotrexate; NSC 740 (intraperitoneal) in B6D2F1 (BDF1) mice
# Conditions: endpoint: mean survival time, higher = longer survival
# Experimental: The antitumor activity of compounds was measured in mice bearing transplantable tumors. Survival or tumor size were measured and the results are expressed as the measurement made in the treated group (T) divided by the measurement made in the vehicle treated control group (C). The tumor model used in this assay is L1210 Leukemia resistant to Methotrexate; NSC 740 (intraperitoneal) in B6D2F1 (BDF1) mice
# [1] = dose: 10.0 mg/kg/injection, schedule: Q01DX Z (ip), vehicle: saline
# [2] = dose: 25.0 mg/kg/injection, schedule: Q01DX Z (ip), vehicle: carboxymethylcellulose (CMC)
# [3] = dose: 50.0 mg/kg/injection, schedule: Q01DX Z (ip), vehicle: carboxymethylcellulose (CMC)
# [4] = dose: 3.75 mg/kg/injection, schedule: Q01DX Z (ip), vehicle: carboxymethylcellulose (CMC)
# [5] = dose: 7.5 mg/kg/injection, schedule: Q01DX Z (ip), vehicle: carboxymethylcellulose (CMC)
# [6] = dose: 5.0 mg/kg/injection, schedule: Q01DX Z (ip), vehicle: carboxymethylcellulose (CMC)
# [7] = dose: 12.5 mg/kg/injection, schedule: Q01DX Z (ip), vehicle: carboxymethylcellulose (CMC)
compound,measurement,setting,value
Nc1nc(N)c2nc(CNc3ccc(C(=O)NC(CCC(=O)O)C(=O)O)cc3)cnc2n1 (configuration not stated),T/C,"dose: 0.05 mg/kg/injection, schedule: Q01DX010 (ip), vehicle: other",90 % of control
same,T/C,"dose: 0.1 mg/kg/injection, schedule: Q01DX010 (ip), vehicle: other",102 % of control and 103 % of control
same,T/C,"dose: 0.2 mg/kg/injection, schedule: Q01DX010 (ip), vehicle: other",92 % of control and 104 % of control
same,T/C,"dose: 0.4 mg/kg/injection, schedule: Q01DX010 (ip), vehicle: other",89 % of control
O=CCC(O)C(O)C(O)CO (configuration not stated),T/C,"dose: 3.75 mg/kg/injection, schedule: Q01DX Z (ip), vehicle: saline",113 % of control
same,T/C,"dose: 5.0 mg/kg/injection, schedule: Q01DX Z (ip), vehicle: saline",118 % of control
same,T/C,"dose: 7.5 mg/kg/injection, schedule: Q01DX Z (ip), vehicle: saline",114 % of control and 103 % of control
same,T/C,[1],118 % of control
same,T/C,"dose: 15.0 mg/kg/injection, schedule: Q01DX Z (ip), vehicle: saline",114 % of control
same,T/C,"dose: 250.0 mg/kg/injection, schedule: Q01DX Z (ip), vehicle: saline",108 % of control
same,T/C,"dose: 500.0 mg/kg/injection, schedule: Q01DX Z (ip), vehicle: saline",104 % of control
same,T/C,"dose: 750.0 mg/kg/injection, schedule: Q01DX Z (ip), vehicle: saline",99 % of control
same,T/C,"dose: 1000.0 mg/kg/injection, schedule: Q01DX Z (ip), vehicle: saline",91 % of control
N#CCSc1ncnc2nc[nH]c12,T/C,[2],101 % of control
same,T/C,[3],120 % of control
same,T/C,"dose: 100.0 mg/kg/injection, schedule: Q01DX Z (ip), vehicle: carboxymethylcellulose (CMC)",111 % of control
C1CN1c1nc(N2CC2)nc(N2CC2)n1,T/C,"dose: 2.0 mg/kg/injection, schedule: Q01DX Z (ip), vehicle: saline",93 % of control
same,T/C,"dose: 4.0 mg/kg/injection, schedule: Q01DX Z (ip), vehicle: saline",93 % of control
same,T/C,"dose: 32.0 micrograms/kg/injection, schedule: Q01DX Z (ip), vehicle: saline",90 % of control and 100 % of control
same,T/C,"dose: 63.0 micrograms/kg/injection, schedule: Q01DX Z (ip), vehicle: saline",98 % of control
same,T/C,"dose: 125.0 micrograms/kg/injection, schedule: Q01DX Z (ip), vehicle: saline",87 % of control
same,T/C,"dose: 250.0 micrograms/kg/injection, schedule: Q01DX Z (ip), vehicle: saline",98 % of control
CN(N=O)C(N)=O,T/C,"dose: 5.0 mg/kg/injection, schedule: Q01DX010 (ip), vehicle: saline",122 % of control
same,T/C,"dose: 12.5 mg/kg/injection, schedule: Q01DX Z (ip), vehicle: saline",105 % of control
same,T/C,"dose: 25.0 mg/kg/injection, schedule: Q01DX Z (ip), vehicle: saline",101 % of control
same,T/C,"dose: 50.0 mg/kg/injection, schedule: Q01DX Z (ip), vehicle: saline",103 % of control
Nc1nc(F)nc2c1ncn2C1OC(CO)C(O)C1O (configuration not stated),T/C,"dose: 0.25 mg/kg/injection, schedule: Q01DX Z (ip), vehicle: saline",122 % of control
same,T/C,"dose: 0.75 mg/kg/injection, schedule: Q01DX Z (ip), vehicle: saline",115 % of control
same,T/C,"dose: 1.5 mg/kg/injection, schedule: Q01DX Z (ip), vehicle: saline",108 % of control
same,T/C,"dose: 3.0 mg/kg/injection, schedule: Q01DX Z (ip), vehicle: saline",104 % of control
same,T/C,"dose: 6.0 mg/kg/injection, schedule: Q01DX Z (ip), vehicle: saline",86 % of control
same,T/C,"dose: 25.0 micrograms/kg/injection, schedule: Q01DX Z (ip), vehicle: saline",91 % of control
same,T/C,"dose: 50.0 micrograms/kg/injection, schedule: Q01DX Z (ip), vehicle: saline",92 % of control
same,T/C,"dose: 100.0 micrograms/kg/injection, schedule: Q01DX Z (ip), vehicle: saline",100 % of control
same,T/C,"dose: 210.0 micrograms/kg/injection, schedule: Q01DX Z (ip), vehicle: saline",86 % of control
Nc1nc(=S)c2ncn(C3OC(CO)C(O)C3O)c2[nH]1 (configuration not stated),T/C,"dose: 0.22 mg/kg/injection, schedule: Q01DX Z (ip), vehicle: carboxymethylcellulose (CMC)",88 % of control
same,T/C,"dose: 0.45 mg/kg/injection, schedule: Q01DX Z (ip), vehicle: carboxymethylcellulose (CMC)",88 % of control
same,T/C,"dose: 1.8 mg/kg/injection, schedule: Q01DX Z (ip), vehicle: carboxymethylcellulose (CMC)",102 % of control
O=C(Nc1ccc(C2=NCCN2)cc1)c1ccc(C(=O)Nc2ccc(C3=NCCN3)cc2)c(Cl)c1,T/C,"dose: 1.9 mg/kg/injection, schedule: Q01DX Z (ip), vehicle: other",88 % of control
same,T/C,"dose: 2.0 mg/kg/injection, schedule: Q01DX010 (ip), vehicle: other",122 % of control
same,T/C,"dose: 3.8 mg/kg/injection, schedule: Q01DX Z (ip), vehicle: other",94 % of control
same,T/C,"dose: 7.5 mg/kg/injection, schedule: Q01DX Z (ip), vehicle: other",97 % of control
same,T/C,"dose: 8.0 mg/kg/injection, schedule: Q01DX010 (ip), vehicle: other",170 % of control
same,T/C,"dose: 8.5 mg/kg/injection, schedule: Q02DX010 (ip), vehicle: carboxymethylcellulose (CMC)",123 % of control
same,T/C,[1],118 % of control and 110 % of control
same,T/C,"dose: 15.0 mg/kg/injection, schedule: Q01DX Z (ip), vehicle: other",97 % of control
same,T/C,"dose: 16.0 mg/kg/injection, schedule: Q01DX010 (ip), vehicle: other",177 % of control and 221 % of control
same,T/C,"dose: 20.0 mg/kg/injection, schedule: Q01DX Z (ip), vehicle: other",124 % of control
same,T/C,"dose: 30.0 mg/kg/injection, schedule: Q01DX Z (ip), vehicle: other",101 % of control
same,T/C,"dose: 30.0 mg/kg/injection, schedule: Q02DX010 (ip), vehicle: carboxymethylcellulose (CMC)",192 % of control
same,T/C,"dose: 32.0 mg/kg/injection, schedule: Q01DX010 (ip), vehicle: other",250 % of control and 274 % of control
same,T/C,"dose: 40.0 mg/kg/injection, schedule: Q01DX Z (ip), vehicle: other",95 % of control
same,T/C,"dose: 45.0 mg/kg/injection, schedule: Q02DX010 (ip), vehicle: carboxymethylcellulose (CMC)",190 % of control
same,T/C,"dose: 80.0 mg/kg/injection, schedule: Q01DX Z (ip), vehicle: other",91 % of control
same,T/C,"dose: 80.0 mg/kg/injection, schedule: Q01DX Z (ip), vehicle: saline",88 % of control
c1ccc(CNc2ncnc3[nH]ncc23)cc1,T/C,"dose: 8.0 mg/kg/injection, schedule: Q01DX010 (ip), vehicle: saline",94 % of control and 103 % of control
same,T/C,"dose: 16.0 mg/kg/injection, schedule: Q01DX010 (ip), vehicle: saline",96 % of control and 100 % of control
same,T/C,"dose: 32.0 mg/kg/injection, schedule: Q01DX010 (ip), vehicle: saline",91 % of control
O=c1[nH]c(=O)n(C2CC(O)C(CO)O2)cc1I (configuration not stated),T/C,[4],102 % of control
same,T/C,[5],108 % of control
same,T/C,"dose: 15.0 mg/kg/injection, schedule: Q01DX Z (ip), vehicle: carboxymethylcellulose (CMC)",108 % of control
same,T/C,"dose: 30.0 mg/kg/injection, schedule: Q01DX Z (ip), vehicle: carboxymethylcellulose (CMC)",106 % of control
O=C(O)CCCc1ccc(N(CCCl)CCCl)cc1,T/C,"dose: 1.0 mg/kg/injection, schedule: Q01DX Z (ip), vehicle: carboxymethylcellulose (CMC)",105 % of control
same,T/C,"dose: 2.0 mg/kg/injection, schedule: Q01DX Z (ip), vehicle: carboxymethylcellulose (CMC)",97 % of control
same,T/C,"dose: 4.0 mg/kg/injection, schedule: Q01DX Z (ip), vehicle: carboxymethylcellulose (CMC)",96 % of control
same,T/C,[6],103 % of control
same,T/C,"dose: 6.25 mg/kg/injection, schedule: Q01DX Z (ip), vehicle: carboxymethylcellulose (CMC)",107 % of control
same,T/C,[7],95 % of control
same,T/C,[2],90 % of control
O=C1N(Cl)C(=O)C(c2ccc(Cl)cc2)(c2ccc(Cl)cc2)N1Cl,T/C,"dose: 0.8 mg/kg/injection, schedule: Q01DX Z (ip), vehicle: methylcellulose (MC)",90 % of control
same,T/C,"dose: 1.6 mg/kg/injection, schedule: Q01DX Z (ip), vehicle: methylcellulose (MC)",90 % of control
same,T/C,"dose: 3.2 mg/kg/injection, schedule: Q01DX Z (ip), vehicle: methylcellulose (MC)",86 % of control and 98 % of control
CC(CCC(C)OS(C)(=O)=O)OS(C)(=O)=O (configuration not stated),T/C,[4],86 % of control
same,T/C,[6],114 % of control
same,T/C,[5],106 % of control
same,T/C,"dose: 10.0 mg/kg/injection, schedule: Q01DX Z (ip), vehicle: carboxymethylcellulose (CMC)",91 % of control
same,T/C,[7],98 % of control
same,T/C,[3],88 % of control
same,T/C,"dose: 75.0 mg/kg/injection, schedule: Q01DX Z (ip), vehicle: carboxymethylcellulose (CMC)",98 % of control
C[C@]12CCC(=O)C=C1CC[C@@H]1[C@@H]2C(=O)C[C@@]2(C)[C@H]1CC[C@]2(O)C(=O)CO,T/C,"dose: 63.0 mg/kg/injection, schedule: Q01DX Z (sc), vehicle: steriod suspending solution",101 % of control and 106 % of control
same,T/C,"dose: 100.0 mg/kg/injection, schedule: Q01DX Z (sc), vehicle: steriod suspending solution",89 % of control
same,T/C,"dose: 125.0 mg/kg/injection, schedule: Q01DX Z (sc), vehicle: steriod suspending solution",98 % of control and 102 % of control
